Patent publication US7732603B2, “Organic compounds as agents for the treatment of aldosterone mediated conditions” (Novartis AG, priority 2002, dated 2010)
Structures can show the parent of a compound that is named as a salt.

| Structure (SMILES) | melting point |
| --- | --- |
| CC1(c2ccc(Br)cc2)C(=O)N(CC2CC2)Cc2cncn21.Cl (stereo not drawn) | 228 to 230 °C |
| Cl.N#Cc1ccc(C2C(=O)N(Cc3ccc(C(F)(F)F)cc3)Cc3cncn32)cc1 (stereo not drawn) | 234 to 236 °C |
| Cl.N#Cc1cccc(C2C(=O)N(CC3CC3)Cc3cncn32)c1 (stereo not drawn) | 225 to 227 °C |
| C[C@H](c1ccccc1)N1Cc2cncn2C(c2ccc(Br)cc2)C1=O (single isomer, unassigned; (+)) [Example 60] | 147 to 148 °C |
| C=CCN1Cc2cncn2C(c2ccc(C#N)cc2)C1=O (stereo not drawn) [Example 4, 4-(7-Allyl-6-oxo-5,6,7,8-tetrahydro-imidazo[1,5-a]pyrazin-5-yl)-benzonitrile] | 107 to 109 °C |
| CC(C)N1Cc2cncn2C(c2ccc(C#N)cc2)C1=O (stereo not drawn) [Example 6, 4-(7-Isopropyl-6-oxo-5,6,7,8-tetrahydro-imidazo[1,5-a]pyrazin-5-yl)-benzonitrile] | 122 to 124 °C |
| N#Cc1ccc(C2C(=O)N(Cc3ccc(Cl)c(Cl)c3)Cc3cncn32)cc1 (stereo not drawn) [Example 16] | 175 to 176 °C |
| N#Cc1ccc(C2C(=O)N(Cc3ccc(F)cc3)Cc3cncn32)cc1 (stereo not drawn) [Example 14, 4-[6-Oxo-7-(4-fluoro-benzyl)-5,6,7,8-tetrahydro-imidazo[1,5-a]pyrazin-5-yl]-benzonitrile] | 132 to 135 °C |
| O=C1C(c2ccc(-c3ccccc3)cc2)n2cncc2CN1Cc1ccc(F)cc1 (stereo not drawn) [Example 78, 5-Biphenyl-4-yl-7-(4-fluoro-benzyl)-7,8-dihydro-imidazo[1,5-a]pyrazin-6-one] | 189 to 190 °C |
| O=C(O)C(=O)O.O=C1C(c2cccc(Br)c2)n2cncc2CN1C1CCCCC1 (stereo not drawn) | 129 to 131 °C |
| Cl.O=C1C(c2ccc(-c3ccsc3)cc2)n2cncc2CN1CC1CC1 (stereo not drawn) | 217 to 219 °C |
| CCCN1Cc2cncn2C(c2ccc(C#N)cc2)C1=O (stereo not drawn) [Example 5, 4-(6-Oxo-7-propyl-5,6,7,8-tetrahydro-imidazo[1,5-a]pyrazin-5-yl)-benzonitrile] | 97 to 98 °C |
| CC1(c2cccc(Br)c2)C(=O)N(CC2CC2)Cc2cncn21.Cl (stereo not drawn) | 234 to 236 °C |
| N#Cc1ccc(C2(Cc3ccccc3)C(=O)N(CC3CC3)Cc3cncn32)cc1 (stereo not drawn) [Example 89, 4-(5-Benzyl-7-cyclopropylmethyl-6-oxo-5,6,7,8-tetrahydro-imidazo[1,5-a]pyrazin-5-yl)-benzonitrile] | 156 to 158 °C |
| CN1Cc2cncn2C(c2ccc(Br)cc2)C1=O (stereo not drawn) [Example 20, 5-(4-Bromo-phenyl)-7-methyl-7,8-dihydro-imidazo[1,5-a]pyrazin-6-one] | 143 to 144 °C |
| Cl.Cl.N#Cc1ccc(C2C(=O)N(CCCN3CCOCC3)Cc3cncn32)cc1 (stereo not drawn) | 246 to 248 °C |
| COc1ccc(N2Cc3cncn3C(c3ccc(Br)cc3)C2=O)cc1.Cl (stereo not drawn) | 149 to 150 °C |
| Cl.O=C1C(c2ccc(Br)cc2)n2cncc2CN1Cc1ccc(C(F)(F)F)cc1 (stereo not drawn) | 113 to 114 °C |

| Structure (SMILES) | melting point |
| --- | --- |
| Cc1ccc(CN2Cc3cncn3CC2=O)cc1 [Example 64, 7-(4-Methyl-benzyl)-7,8-dihydro-imidazo[1,5-a]pyrazin-6-one] | 105 to 108 °C |
| N#Cc1ccc(C2CC(=O)N(Cc3ccccc3)Cc3cncn32)cc1 (stereo not drawn) [Example 92, 4-(8-Benzyl-7-oxo-6,7,8,9-tetrahydro-5H-imidazo[1,5-a][1,4]diazepin-5-yl)-benzonitrile] | 65 °C |
| Cl.N#Cc1ccc(C2C(=O)N(CCc3ccc(F)cc3)Cc3cncn32)cc1 (stereo not drawn) | 160 to 162 °C |
| Cl.N#Cc1ccc(C2C(=O)N(Cc3cccc(C(F)(F)F)c3)Cc3cncn32)cc1 (stereo not drawn) | 250 to 252 °C |
| O=C1Cn2cncc2CN1Cc1ccc(F)cc1 [Example 65, 7-(4-Fluoro-benzyl)-7,8-dihydro-imidazo[1,5-a]pyrazin-6-one] | 112 to 114 °C |
| Cl.O=C1Cn2cncc2CN1Cc1ccccc1 | 201 to 204 °C |
| COc1ccc(CN2Cc3cncn3C(c3ccc(-c4ccc(Cl)cc4)cc3)C2=O)cc1.Cl (stereo not drawn) | 270 to 273 °C |
| COC(=O)c1ccc(C2C(=O)N(Cc3ccccc3)Cc3cncn32)cc1.Cl (stereo not drawn) | 236 to 238 °C |
| CN1Cc2cncn2C(c2ccccc2)C1=O.Cl (stereo not drawn) | 252 to 254 °C |
| COc1ccc(CN2Cc3cncn3C(c3ccc(-c4ccsc4)cc3)C2=O)cc1 (stereo not drawn) [Example 75, 7-(4-Methoxy-benzyl)-5-(4-thiophen3-yl-phenyl)-7,8-dihydro-imidazo[1,5-a]pyrazin-6-one] | 162 to 164 °C |
| CN1Cc2cncn2C(c2ccc(C#N)cc2)C1=O.Cl (stereo not drawn) | 222 to 224 °C |
| Brc1ccc(C2CN(Cc3ccccc3)Cc3cncn32)cc1 (stereo not drawn) (as salt: toluene sulfonate) [Example 91, 5-(4-Bromophenyl)-7-benzyl-5,6,7,8-tetrahydro-imidazo[1,5-a]pyrazine p-toluene sulfonate] | 223 to 225 °C |
| CC1(c2ccc(Br)cc2)C(=O)N(Cc2ccc(F)cc2)Cc2cncn21.Cl (stereo not drawn) | 235 to 237 °C |
| Cl.O=C1C(c2ccc(Br)cc2)n2cncc2CN1CCc1ccc(F)cc1 (stereo not drawn) | 136 to 138 °C |
| N#Cc1ccc(C2(Cc3ccccc3)C(=O)N(Cc3ccccc3)Cc3cncn32)cc1 (stereo not drawn) [Example 88, 4-(5,7-Dibenzyl-6-oxo-5,6,7,8-tetrahydro-imidazol[1,5-a]pyrazin-5-yl)-benzonitrile] | 246 to 248 °C |
| N#Cc1ccc(C2CC(=O)N(CC3CC3)Cc3cncn32)cc1 (stereo not drawn) [Example 93, 4-(8-Cyclopropylmethyl-7-oxo-6,7,8,9-tetrahydro-5H-imidazo[1,5-a][1,4]diazepin-5-yl)-benzonitrile] | 178 to 180 °C |
| Cc1ccc(CN2Cc3cncn3C(c3ccc(C#N)cc3)C2=O)cc1 (stereo not drawn) [Example 10, 4-[7-(4-Methyl-benzyl)-6-oxo-5,6,7,8-tetrahydro-imidazo[1,5-a]pyrazin-5-yl)-benzonitrile] | 168 to 170 °C |

The remaining lines, values ahead:

| melting point | Structure (SMILES) |
| --- | --- |
| 249 to 251 °C | Cl.O=C1C(c2cccc(Br)c2)n2cncc2CN1Cc1ccccc1 (stereo not drawn) |
| 248 to 249 °C | Cc1cccc(CN2Cc3cncn3C(c3cccc(Br)c3)C2=O)c1.Cl (stereo not drawn) |
| 215 to 218 °C | Cl.O=C1C(c2cccc(Br)c2)n2cncc2CN1Cc1ccco1 (stereo not drawn) |
| 158 to 159 °C | Cl.O=C1C(c2ccc(Br)cc2)n2cncc2CN1Cc1ccc(Cl)cc1 (stereo not drawn) |
| 221 to 223 °C | Cl.N#Cc1cccc(C2C(=O)N(CCc3ccc(F)cc3)Cc3cncn32)c1 (stereo not drawn) |
| 223 to 225 °C | Cl.O=C1C(c2ccc(Br)cc2)n2cncc2CN1CC1CC1 (stereo not drawn) |
| 246 to 248 °C | Cl.O=C1C(c2cccc(Br)c2)n2cncc2CN1Cc1ccc(F)cc1 (stereo not drawn) |
| 50 to 54 °C | O=C1C(c2cccc(Br)c2)n2cncc2CN1Cc1ccncc1 (stereo not drawn) [Example 54, 5-(3-Bromo-phenyl)-7-pyridin-4-ylmethyl-7,8-dihydro-imidazo[1,5-a]pyrazin-6-one] |
| 50 to 54 °C | O=C1C(c2cccc(Br)c2)n2cncc2CN1Cc1cccnc1 (stereo not drawn) [Example 52, 5-(3-Bromo-phenyl)-7-pyridin-3-ylmethyl-7,8-dihydro-imidazo[1,5-a]pyrazin-6-one] |
| 184 to 186 °C | Cl.O=C1C(c2cccc(Br)c2)n2cncc2CN1CCc1cccc(Cl)c1 (stereo not drawn) |
| 55 to 70 °C | C[C@@H](c1ccccc1)N1Cc2cncn2C(c2cccc(Br)c2)C1=O (single isomer, unassigned; (-)) [Example 59] |
| 269 to 271 °C | Cl.O=C1C(c2cccc(Br)c2)n2cncc2CN1Cc1ccc(C(F)(F)F)cc1 (stereo not drawn) |
| 246 to 248 °C | COc1ccc(CN2Cc3cncn3C(c3cccc(C#N)c3)C2=O)cc1.Cl (stereo not drawn) |
| 246 to 248 °C | Cl.O=C1C(c2cccc(Br)c2)n2cncc2CN1Cc1cccc(C(F)(F)F)c1 (stereo not drawn) |
| 45 to 50 °C | C[C@H](c1ccccc1)N1Cc2cncn2C(c2cccc(Br)c2)C1=O (single isomer, unassigned; (+)) [Example 58] |
| 163 to 165 °C | N#Cc1cccc(C2C(=O)N(Cc3ccccc3)Cc3cncn32)c1 (stereo not drawn) [Example 66] |
| 202 to 204 °C | COc1ccc(CCN2Cc3cncn3C(c3cccc(Br)c3)C2=O)cc1.Cl (stereo not drawn) |

| melting point | Structure (SMILES) |
| --- | --- |
| 52 to 56 °C | O=C1C(c2cccc(Br)c2)n2cncc2CN1Cc1ccccn1 (stereo not drawn) [Example 53, 5-(3-Bromo-phenyl)-7-pyridin-2-ylmethyl-7,8-dihydro-imidazo[1,5-a]pyrazin-6-one] |
| 250 °C (dec.) | Cl.O=C1C(c2ccc(Br)cc2)n2cncc2CN1Cc1ccccc1 (stereo not drawn) |
| 265 to 267 °C | Cc1ccc(CN2Cc3cncn3C(c3cccc(Br)c3)C2=O)cc1.Cl (stereo not drawn) |
| 232 to 234 °C | Cl.O=C1C(c2cccc(-c3ccccc3)c2)n2cncc2CN1Cc1ccccc1 (stereo not drawn) |
| 225 to 226 °C | Cl.O=C1C(c2cccc(Br)c2)n2cncc2CN1CCc1ccc(Cl)cc1 (stereo not drawn) |
| 240 to 243 °C | Cl.O=C1C(c2cccc(Br)c2)n2cncc2CN1Cc1cccc(F)c1 (stereo not drawn) |
| 205 to 207 °C | Cl.O=C1C(c2ccc(Br)cc2)n2cncc2CN1Cc1ccc(F)cc1 (stereo not drawn) |
| 260 to 263 °C | Cc1ccc(CN2Cc3cncn3C(c3cccc(C#N)c3)C2=O)cc1.Cl (stereo not drawn) |
| 205 to 207 °C | Cl.O=C1C(c2cccc(Br)c2)n2cncc2CN1CCc1ccccc1 (stereo not drawn) |
| 268 to 270 °C | Cl.O=C1C(c2cccc(Br)c2)n2cncc2CN1Cc1ccc(Cl)cc1 (stereo not drawn) |
| 43 to 45 °C | O=C1C(c2cccc(Br)c2)n2cncc2CN1Cc1ccsc1 (stereo not drawn) [Example 50, 5-(3-Bromo-phenyl)-7-thiophen-3-ylmethyl-7,8-dihydro-imidazo[1,5-a]pyrazin-6-one] |
| 197 to 199 °C | Cc1ccc(CCN2Cc3cncn3C(c3cccc(Br)c3)C2=O)cc1.Cl (stereo not drawn) |
| 203 to 205 °C | Cl.N#Cc1cccc(C2C(=O)N(CCc3ccccc3)Cc3cncn32)c1 (stereo not drawn) |
| 233 to 235 °C | Cl.O=C1C(c2cccc(Br)c2)n2cncc2CN1Cc1cccs1 (stereo not drawn) |
| 249 to 251 °C | Cl.O=C1C(c2ccccc2)n2cncc2CN1Cc1ccccc1 (stereo not drawn) |
| 260 to 263 °C | Cl.N#Cc1cccc(C2C(=O)N(Cc3ccc(F)cc3)Cc3cncn32)c1 (stereo not drawn) |
| 179 to 180 °C | Cl.O=C1C(c2cccc(Br)c2)n2cncc2CN1CCc1ccc(F)cc1 (stereo not drawn) |
